Common to all, as to format: cell-based, human
Test [1] in a line: Single-dose CCK-8 cell viability screening (adherent cells). The conditions noted are these: Homo sapiens, average of A549 and Jurkat % viability, 50 uM, 48 h. The procedure: (§1) In this example, the anti-cancer properties of the BB analogues described in Table 1d were evaluated. Single-dose screening approach is used for initial testing to assess the cytotoxic effect of the BB analogues (also referred to as ‘BB compounds’) on Jurkat cells (human T cell leukaemia cells) and A549 cells (human lung cancer cells).
(§2) Method for Adherent Cells (A549 Cells)
(§3) In this example, 5000 cells/100 uL were seeded in 96-well plates and incubate at 37° C.+5% CO2 overnight. Media were replaced with 100 uL of 50 uM compound per well in 6 replicates. The following controls were prepared.
(§4) Blank control: 100 uL 0.1% DMSO in media with no cells per well.
(§5) Positive control: 100 uL of 10 uM 5-flurouracil per well.
(§6) Negative control: 100 uL of 0.1% DMSO in media per well.
(§7) Each 96-well plate included 7 compounds and the complete set of controls (in 6 replicates).
(§8) Cells were incubated at 37° C.+5% CO2 for 46 hours. 10 uL of CCK8 solution was added to each well. Cells were then incubated at 37° C.+5% CO2 for 2 hours. Absorbance at 450 nm was measured using a multiplate reader.
(§9) Viability was calculated using the equation: […]
(§10) The benchmark in Table 2 was used to define the activities of each compound.

For test [2], the system named is A549 cells. The test is described as above. The conditions noted are these: Homo sapiens, A549, 48 h. As to the method:
as §1, §2, §3, §4, §5, §6, §7, §8, §9, §10

Test [3] has as its system Jurkat cells. The experiment in a line: Single-dose CCK-8 cell viability screening (suspension cells). The following applies: Homo sapiens, Jurkat, 48 h. As to the method:
as §1
Method for Suspension Cells (Jurkat Cells)
5000 cells/90 uL were seeded in 96-well plates. 10 uL of 500 uM compound (10×) was added to each well in 6 replicates. The following controls were prepared.
Blank control: 10 uL 1% DMSO in media with no cells per well.
Positive control: 10 uL of 100 uM 5-flurouracil (10×) per well.
Negative control: 10 uL of 1% DMSO in media (10×) per well.
Each 96-well plate included 7 BB analogues and the complete set of controls (in 6 replicates).
as §8, §9, §10

[4] abbreviates: A549 cells, 50 uM, 48 h, CCK-8, read-out: % Viability (50 uM, 48 h) A549.
[5] abbreviates: Jurkat cells, 50 uM, CCK-8, read-out: % Viability (50 uM, 48 h) Jurkat.
The mark [6] stands for this setting: read-out: % Viability (50 uM, 48 h) A549.
Setting [7] is: read-out: % Viability (50 uM, 48 h) Jurkat.

Like-named read-outs stand apart in the source and are kept apart here.

In the case of `CN1C(=O)[C@H](OC(=O)c2ccccc2)[C@@]23[C@@H]1OC(=O)[C@@]21CC(=O)O[C@H]1C[C@@]3(O)C(C)(C)C` [DW168, (3aS,5aS,8R,8aS,9R,10aS)-9-(tert-butyl)-9-hydroxy-6-methyl-2,4,7-trioxooctahydro-4H,9H-furo [3″,2″:2′,3′]cyclopenta [1′,2′:3,4]furo[2,3-b]pyrrol-8-ylbenzoate], the viability at 50 µM is 103% in test [1] (A549, 48 h); 105% in test [2] (setting [4]); 101% in test [3] (setting [5]).

In the case of `CC(=O)O[C@H]1C(=O)N[C@H]2OC(=O)[C@]34CC(=O)O[C@H]3C=C(C(C)(C)C)[C@@]214` [XBB-010, (3aS,5aS,8R,8aS,10aS)-9-(tert-butyl)-2,4,7-trioxo-2,3,5a,6,7,8-hexahydro-4H,10aH-furo[3″,2″:2′,3′]cyclopenta[1′,2′:3,4]furo[2,3-b]pyrrol-8-yl acetate], the viability at 50 µM amounted to 114% in test [1] (A549, 48 h); 112% in test [2] (read-out: % Viability (50 uM, 48 h) A549, A549 cells, 50 uM, 48 h, CCK-8); 115% in test [3] (read-out: % Viability (50 uM, 48 h) Jurkat, Jurkat cells, 50 uM, 48 h, CCK-8).

Take `CC(C)(C)[C@]1(O)C[C@@H]2OC(=O)C[C@@]23C(=O)O[C@@H]2N(C45CC(C4)C5)C(=O)[C@H](OC(=O)c4ccccc4)[C@]213` [DW172, (3aS,5aS,8R,8aS,9R,10aS)-6-(bicyclo[1.1.1]pentan-1-yl)-9-(tert-butyl)-9-hydroxy-2,4,7-trioxooctahydro-4H,9H-furo [3″,2″:2′,3′]cyclopenta [1′,2′:3,4]furo[2,3-b]pyrrol-8-yl benzoate]: the values for the viability at 50 µM in test [1], in test [2] (setting [6]) and in test [3] (setting [7]) were 96.6%, 98.7% and 94.4%, respectively.

For the molecule `CC(C)(C)[C@]1(O)C[C@@H]2OC(=O)C[C@@]23C(=O)O[C@@H]2N(c4ccc(N5CCOCC5)cc4)C(=O)[C@H](OC(=O)c4ccccc4)[C@]213` [XBB-038, (3aS,5aS,8R,8aS,9R,10aS)-9-(tert-butyl)-9-hydroxy-6-(4-morpholinophenyl)-2,4,7-trioxooctahydro-4H,9H-furo [3″,2″:2′,3′]cyclopenta [1′,2′:3,4]furo [2,3-b]pyrrol-8-yl benzoate], the viability at 50 µM in test [1] (A549, 48 h) was determined as 90.1%; in test [2] (setting [4]), 95.3%; in test [3] (setting [5]) it was 84.8%.

Regarding `Cc1ccc(N2C(=O)[C@H](OC(=O)c3ccccc3)[C@@]34[C@@H]2OC(=O)[C@@]32CC(=O)O[C@H]2C[C@@]4(O)C(C)(C)C)cc1` [P-30, (3aS,5aS,8R,9R,10aS)-9-(tert-butyl)-9-hydroxy-2,4,7-trioxo-6-(toluyl)octahydro-4H,9H-furo [3″,2″:2′,3′]cyclopenta [1′,2′:3,4]furo [2,3-b]pyrrol-8-yl benzoate], the viability at 50 µM in test [1] (A549, 48 h) turned out to be 59.1%; in test [2] (setting [4]), 56.9%; in test [3] (setting [5]), 61.3%.

With `CC(C)(C)[C@]1(O)C[C@@H]2OC(=O)C[C@@]23C(=O)O[C@@H]2N(c4ccccc4)C(=O)[C@H](O)[C@]213` [JW116, (3aS,5aS,8R,8aS,9R,10aS)-9-(tert-butyl)-8,9-dihydroxy-6-phenyltetrahydro-4H,9H-furo[3″,2″:2′,3′]cyclopenta[1′,2′:3,4]furo[2,3-b]pyrrole-2,4,7(3H,8H)-trione], the viability at 50 µM in test [1] (A549, 48 h) came to 91.2%; in test [2] (setting [6]), 77.7%; in test [3] (setting [7]) it was 105%.

Take `CC(C)(C)[C@]1(O)C[C@@H]2OC(=O)C[C@@]23C(=O)O[C@@H]2N(c4cccnc4)C(=O)[C@H](OC(=O)c4ccccc4)[C@]213` [XBB-040, (3aS,5aS,8R,8aS,9R,10aS)-9-(tert-butyl)-9-hydroxy-2,4,7-trioxo-6-(pyridin-3-yl)octahydro-4H,9H-furo [3″,2″:2′,3′]cyclopenta [1′,2′:3,4]furo [2,3-b]pyrrol-8-yl benzoate]: the viability at 50 µM turned out to be 99% in test [1] (A549, 48 h); 99.6% in test [2] (setting [6]); 98.4% in test [3] (setting [7]).

With `COc1ccc(N2C(=O)[C@H](OC(=O)c3ccccc3)[C@@]34[C@@H]2OC(=O)[C@@]32CC(=O)O[C@H]2C[C@@]4(O)C(C)(C)C)cc1` [JW093, (3aS,5aS,8R,9R,10aS)-9-(tert-butyl)-9-hydroxy-6-(4-methoxyphenyl)-2,4,7-trioxodecahydrofuro [3″,2″:2′,3′]cyclopenta [1′,2′:3,4]furo [2,3-b]pyrrol-8-yl benzoate], the viability at 50 µM in test [1] (A549, 48 h) turned out to be 67.5%; in test [2] (setting [4]), 68.7%; in test [3] (setting [5]), 66.3%.

In the case of `CC(C)(C)[C@]1(O)C[C@@H]2OC(=O)C[C@@]23C(=O)O[C@@H]2N(C4CCCC4)C(=O)[C@H](OC(=O)c4ccccc4)[C@]213` [JW081, (3aS,5aS,8R,8aS,9R,10aS)-9-(tert-butyl)-6-cyclopentyl-9-hydroxy-2,4,7-trioxooctahydro-4H,9H-furo[3″,2″:2′,3′]cyclopenta [1′,2′:3,4]furo[2,3-b]pyrrol-8-yl benzoate], the viability at 50 µM was 88.3% in test [1], 89.5% in test [2] (setting [6]) and 87.1% in test [3] (setting [7]).

Turning to `CC(C)(C)[C@]1(O)C[C@@H]2OC(=O)C[C@@]23C(=O)O[C@@H]2N(CC4COC4)C(=O)[C@H](OC(=O)c4ccccc4)[C@]213` [DW191, (3aS,5aS,8R,8aS,9R,10aS)-9-(tert-butyl)-6-(1-oxetan-3-ylmethyl)-9-hydroxy-2,4,7-trioxooctahydro-4H,9H-furo [3″,2″:2′,3′]cyclopenta [1′,2′:3,4]furo [2,3-b]pyrrol-8-yl benzoate], the viability at 50 µM was 103% in test [1] (A549, 48 h); 101% in test [2] (setting [4]); 105% in test [3] (setting [5]).

In the case of `CC(C)(C)[C@]1(O)C[C@@H]2OC(=O)C[C@@]23C(=O)O[C@@H]2N(c4ccc(O)cc4)C(=O)[C@H](OC(=O)c4ccccc4)[C@]213` [JW103, (3aS,5aS,8R,9R,10aS)-9-(tert-butyl)-6-(4-hydroxyphenyl)-9-hydroxy-2,4,7-trioxodecahydrofuro [3″,2″:2′,3′]cyclopenta [1′,2′:3,4]furo [2,3-b]pyrrol-8-yl benzoate], the viability at 50 µM in test [1] (A549, 48 h) was found to be 92.2%; in test [2] (setting [4]) it was 102%; in test [3] (setting [5]) it was 82.2%.

For `Cc1c(CCN2C(=O)[C@H](OC(=O)c3ccccc3)[C@@]34[C@@H]2OC(=O)[C@@]32CC(=O)O[C@H]2C[C@@]4(O)C(C)(C)C)[nH]c2ccccc12` [XBB-029, (3aS,5aS,8R,8aS,9R,10aS)-9-(tert-butyl)-9-hydroxy-6-(2-(3-methyl-1H-indol-2-yl)ethyl)-2,4,7-trioxooctahydro-4H,9H-furo [3″,2″:2′,3′]cyclopenta[1′,2′:3,4]furo[2,3-b]pyrrol-8-yl benzoate], the viability at 50 µM turned out to be 94.8% in test [1] (A549, 48 h); 96.1% in test [2] (setting [4]); 93.4% in test [3] (setting [5]).

Turning to `CC(C)(C)[C@]1(O)C[C@@H]2OC(=O)C[C@@]23C(=O)O[C@@H]2N(c4ccccc4)C(=O)[C@H](OC(=O)c4ccccc4)[C@]213` [XBB-034, (3aS,5aS,8R,8aS,9R,10aS)-9-(tert-butyl)-9-hydroxy-2,4,7-trioxo-6-phenyloctahydro-4H,9H-furo[3″,2″:2′,3′]cyclopenta [1′,2′:3,4]furo[2,3-b]pyrrol-8-yl benzoate], the figures for the viability at 50 µM in test [1], in test [2] (setting [6]) and in test [3] (setting [7]) were 72.5%, 56% and 89.1%, respectively.

Regarding `CC(C)(C)[C@]1(O)C[C@@H]2OC(=O)C[C@@]23C(=O)O[C@@H]2N(CC4CC4)C(=O)[C@H](OC(=O)c4ccccc4)[C@]213` [DW189, (3aS,5aS,8R,8aS,9R,10aS)-9-(tert-butyl)-6-(cyclopropylmethyl)-9-hydroxy-2,4,7-trioxooctahydro-4H,9H-furo [3″,2″:2′,3′]cyclopenta [1′,2′:3,4]furo[2,3-b]pyrrol-8-yl benzoate], the viability at 50 µM in test [1] (A549, 48 h) worked out at 101%; in test [2] (setting [4]), 107%; in test [3] (setting [5]), 95.3%.

As for `COc1ccccc1N1C(=O)[C@H](OC(=O)c2ccccc2)[C@@]23[C@@H]1OC(=O)[C@@]21CC(=O)O[C@H]1C[C@@]3(O)C(C)(C)C` [JW095, (3aS,5aS,8R,9R,10aS)-9-(tert-butyl)-9-hydroxy-6-(2-methoxyphenyl)-2,4,7-trioxodecahydrofuro [3″,2″:2′,3′]cyclopenta [1′,2′:3,4]furo [2,3-b]pyrrol-8-yl benzoate], the viability at 50 µM in test [1] (A549, 48 h) stood at 78.1%; in test [2] (setting [4]), 87.2%; in test [3] (setting [5]), 69%.

By viability is commonly meant a read-out of living cells in per cent, often relative to untreated cells.

For the origin of these results see US20250144069A1, “BILOBALIDE DERIVATIVE COMPOUNDS FOR TREATING NEUROLOGICAL DISEASES AND CANCERS” (The Chinese University of Hong Kong, priority 2023, published 2025).
